From ChEMBL document CHEMBL5316289, “Structure-Based Rational Design of Small α-Helical Peptides with Broad-Spectrum Activity against Multidrug-Resistant Pathogens” (J Med Chem, 2023)
Values joined by “and” are separate entries in the source; they are usually repeats but may differ in a detail not shown here. Equal entries are not always repeated.

What was measured:
Type in all cases: functional
Staphylococcus aureus [1] = assay: Antibacterial activity against methicillin resistant Staphylococcus aureus ATCC BAA 1556 assessed as inhibition of bacterial growth incubated for 24 hrs by CLSI based broth microdilution method
Klebsiella pneumoniae = assay: Antibacterial activity against Klebsiella pneumoniae ATCC BAA 1705 assessed as inhibition of bacterial growth incubated for 24 hrs by CLSI based broth microdilution method; details: read-out: MIC
Escherichia coli = assay: Antibacterial activity against Escherichia coli ATCC 25922 assessed as inhibition of bacterial growth incubated for 24 hrs by CLSI based broth microdilution method
Pseudomonas aeruginosa = assay: Antibacterial activity against Pseudomonas aeruginosa […] assessed as inhibition of bacterial growth incubated for 24 hrs by CLSI based broth microdilution method
Staphylococcus aureus [2] = assay: Antibacterial activity against Staphylococcus aureus ATCC 29213 assessed as inhibition of bacterial growth incubated for 24 hrs by CLSI based broth microdilution method

Row | Substance | MIC (Staphylococcus aureus [1]) | MIC (Klebsiella pneumoniae) [µg/mL] | MIC (Escherichia coli) | MIC (Pseudomonas aeruginosa) [µg/mL] | MIC (Staphylococcus aureus [2])
1 | H-RAWRRAWRAW-NH2 | > 100 µg/mL and > 70.7 µM | > 100 | > 100 µg/mL and > 70.7 µM | > 100 | > 100 µg/mL and > 70.7 µM
2 | H-RAWRRWWARA-NH2 | > 100 µg/mL and > 70.7 µM | > 100 | > 100 µg/mL and > 70.7 µM | > 100 | > 100 µg/mL and > 70.7 µM
3 | H-RWWRRAWRAA-NH2 | > 100 µg/mL and > 70.7 µM | > 100 | > 100 µg/mL and > 70.7 µM | > 100 | > 100 µg/mL and > 70.7 µM
4 | H-RWARRWARWWR-NH2 | 100 µg/mL | > 100 | 100 µg/mL | 100 | 
5 | H-RWARRWWRA-NH2 | > 100 µg/mL and > 74.5 µM | > 100 | > 100 µg/mL and > 74.5 µM | > 100 | > 100 µg/mL and > 74.5 µM
6 | Ac-RWIRRWIRWWR-NH2 |  | 100 | 100 µg/mL |  | 
7 | H-RWRRWWR-NH2 | 100 µg/mL | > 100 | > 100 µg/mL and > 83.3 µM | > 100 | 100 µg/mL
8 | H-WRRWWRR-NH2 | 100 µg/mL | > 100 | > 100 µg/mL and > 83.3 µM | > 100 | 100 µg/mL
9 | H-RRWWRRW-NH2 | 100 µg/mL | > 100 | > 100 µg/mL and > 83.3 µM | > 100 | 
10 | H-RWARRWWR-NH2 | > 100 µg/mL and > 78.7 µM | > 100 | > 100 µg/mL and > 78.7 µM | > 100 | > 100 µg/mL and > 78.7 µM
11 | H-RAARRWARWWR-NH2 | 100 µg/mL | > 100 | > 100 µg/mL and > 63.7 µM | > 100 | 100 µg/mL
12 | H-RWWRAAWRR-NH2 | > 100 µg/mL and > 74.5 µM | > 100 | > 100 µg/mL and > 74.5 µM | > 100 | > 100 µg/mL and > 74.5 µM
13 | H-RAWRRWWRAA-NH2 | > 100 µg/mL and > 70.7 µM | > 100 | > 100 µg/mL and > 70.7 µM | > 100 | > 100 µg/mL and > 70.7 µM
14 | H-WRRWARRW-NH2 | > 100 µg/mL and > 78.7 µM | > 100 | > 100 µg/mL and > 78.7 µM | > 100 | > 100 µg/mL and > 78.7 µM
15 | H-RAWRAWWRRA-NH2 | > 100 µg/mL and > 70.7 µM | > 100 | > 100 µg/mL and > 70.7 µM | > 100 | > 100 µg/mL and > 70.7 µM
16 | H-RWWRRWR-NH2 | 100 µg/mL | > 100 | > 100 µg/mL and > 83.3 µM | > 100 | 100 µg/mL
17 | H-KWAKKWAKWWKK-NH2 | 100 µg/mL | > 100 | > 100 µg/mL and > 59.8 µM | > 100 | 100 µg/mL
